Here are results for six compounds from PubChem BioAssay AID1259411 (Chemical Carcinogenesis Research Information System (CCRIS), 2018).

Molecules are shown by their SMILES. The source made the active and inactive calls. The rule behind the calls is not given here.

For this data set, the system named is rodent carcinogenicity bioassays, tumor incidence. The experiment in a line: CCRIS carcinogenicity studies. The method, boiled down:
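Archive of carcinogenicity, mutagenicity, tumor promotion and tumor inhibition results drawn from journals, NCI reports and other sources, expert-reviewed; covers 1985-2011 and is no longer updated.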

Regarding `[N-]=[N+]=CC(=O)OC[C@H](N)C(=O)O`, the carcinogen call (Species: RAT, Strain/Sex: WISTAR/MALE,FEMALE, Route: INTRAPERITONEAL, Dose: 5 MG/KG 1-2 TIMES PER WK FOR 6 MO, Tumor Site: Type of Lesion: KIDNEY: PAPILLARY EPITHELIAL TUMOR, CLEAR CELL TUMOR, TUBULAR ADENOMA, PANCREAS: ADENOCARCINOMA) is “active; positive”.
With `CCn1c2ccccc2c2ccccc21`, the carcinogen call reads like this: (Species: MOUSE, Strain/Sex: CD-1/FEMALE, Route: INTRAPERITONEAL, Dose: 0, 1.75 UMOL/MOUSE (TOTAL DOSE) ADMINISTERED DURING DAYS 1, 8, AND 15 OF LIFE (STUDY DURATION: 52 WK)) “inactive; negative”; (Species: MOUSE, Strain/Sex: CD-1/MALE, Route: INTRAPERITONEAL, Dose: 0, 1.75 UMOL/MOUSE (TOTAL DOSE) ADMINISTERED DURING DAYS 1, 8, AND 15 OF LIFE (STUDY DURATION: 52 WK)) “inactive; negative”.
As to `O=S(=O)(O)c1ccc(N=Nc2cc(S(=O)(=O)O)c3ccccc3c2O)c2ccccc12`, the carcinogen call is “inactive; negative” (Species: MOUSE, Strain/Sex: B6C3F1/FEMALE, Route: ORAL, Dose: 0, 3000, 6000 PPM IN DIET, Dose: 0, 3000, 6000 PPM IN DIET); “inactive; negative” (Species: MOUSE, Strain/Sex: B6C3F1/MALE, Route: ORAL, Dose: 0, 3000, 6000 PPM IN DIET, Dose: 0, 3000, 6000 PPM IN DIET); “inactive; negative” (Species: RAT, Strain/Sex: F344/FEMALE, Route: ORAL, Dose: 0, 12500, 25000 PPM IN DIET, Dose: 0, 12500, 25000 PPM IN DIET); “inactive; negative” (Species: RAT, Strain/Sex: F344/MALE, Route: ORAL, Dose: 0, 6000, 12500 PPM IN DIET, Dose: 0, 6000, 12500 PPM IN DIET); “inactive; negative” (Species: RAT, Strain/Sex: WISTAR/FEMALE, Route: ORAL, Dose: 0, 100, 400, 1200 MG/KG/D IN BASAL DIET TO PUPS OF PARENTS EXPOSED TO THE SAME DOSE LEVELS FOR 9 WK PRIOR TO MATING AND, Dose: 0, 100, 400, 1200 MG/KG/D IN BASAL DIET TO PUPS OF PARENTS EXPOSED TO THE SAME DOSE LEVELS FOR 9 WK PRIOR TO MATING AND); “inactive; negative” (Species: RAT, Strain/Sex: WISTAR/MALE, Route: ORAL, Dose: 0, 100, 400, 1200 MG/KG/D IN BASAL DIET TO PUPS OF PARENTS EXPOSED TO THE SAME DOSE LEVELS FOR 9 WK PRIOR TO MATING AND, Dose: 0, 100, 400, 1200 MG/KG/D IN BASAL DIET TO PUPS OF PARENTS EXPOSED TO THE SAME DOSE LEVELS FOR 9 WK PRIOR TO MATING AND).
With `CCCCCCCN(C)N=O`, the carcinogen call (Species: HAMSTER, Strain/Sex: SYRIAN/FEMALE, Route: GAVAGE, Dose: 0, 6.8 MG/KG 1/WK FOR 40 WK (TOTAL DOSE: 0; 2.1 MMOL) (STUDY DURATION: LIFETIME), Dose: 0, 6.8 MG/KG 1/WK FOR 40 WK (TOTAL DOSE: 0; 2.1 MMOL) (STUDY DURATION: LIFETIME), Tumor Site: Type of Lesion: LIVER: CHOLANGIOMA, LUNG: ALVEOLAR/BRONCHIAL CARCINOMA, ALVEOLAR/BRONCHIAL ADENOMA, ADENOSQUAMOUS CARCINOMA, NASAL MUCOS, Tumor Site: Type of Lesion: LIVER: CHOLANGIOMA, LUNG: ALVEOLAR/BRONCHIAL CARCINOMA, ALVEOLAR/BRONCHIAL ADENOMA, ADENOSQUAMOUS CARCINOMA, NASAL MUCOS) was “active; positive” and the carcinogen call (Species: HAMSTER, Strain/Sex: SYRIAN/MALE, Route: GAVAGE, Dose: 0, 6.8 MG/KG 1/WK FOR 40 WK (TOTAL DOSE: 0; 2.1 MMOL) (STUDY DURATION: LIFETIME), Dose: 0, 6.8 MG/KG 1/WK FOR 40 WK (TOTAL DOSE: 0; 2.1 MMOL) (STUDY DURATION: LIFETIME), Tumor Site: Type of Lesion: LIVER: CHOLANGIOMA, HEMANGIOSARCOMA, LUNG: ALVEOLAR/BRONCHIAL CARCINOMA, ALVEOLAR/BRONCHIAL ADENOMA, ADENOSQUAMOUS CARCI) is “active; positive”.
`CN(C)NC(=O)CCC(=O)O`: the carcinogen call by setting is: (Species: MOUSE, Strain/Sex: B6C3F1/FEMALE, Route: ORAL, Dose: 0, 5000, 10000 PPM IN DIET FOR 104 WK (STUDY DURATION: 105 WK), Dose: 0, 5000, 10000 PPM IN DIET FOR 104 WK (STUDY DURATION: 105 WK)) “inactive; negative”; (Species: MOUSE, Strain/Sex: B6C3F1/MALE, Route: ORAL, Dose: 0, 5000, 10000 PPM IN DIET FOR 104 WK (STUDY DURATION: 105 WK), Dose: 0, 5000, 10000 PPM IN DIET FOR 104 WK (STUDY DURATION: 105 WK), Tumor Site: Type of Lesion: LIVER: HEPATOCELLULAR CARCINOMA) “equivocal”; (Species: Mouse, Strain/Sex: CD-1/Female (50/group), Route: Oral, Dose: 0, 300, 3,000, 6,000, 10,000 ppm in diet for 2 yr, Dose: 0, 300, 3,000, 6,000, 10,000 ppm in diet for 2 yr, Tumor Site: Type of Lesion: Uterus: at 10,000 ppm) “equivocal”; (Species: Mouse, Strain/Sex: CD-1/Male (50/group), Route: Oral, Dose: 0, 300, 3,000, 6,000, 10,000 ppm in diet for 2 yr, Dose: 0, 300, 3,000, 6,000, 10,000 ppm in diet for 2 yr, Tumor Site: Type of Lesion: Vascular tumor: hemangioma and hemangiosarcoma in liver at 10,000 ppm) “equivocal”; (Species: Mouse, Strain/Sex: Swiss/Male and Female (100/group in controls; 50/group in treated group), Route: Oral, Dose: 0, 2% in drinking water (3000 mg/kg/day), 0.003% UDMH (40 ppm impurity) for 2 yr, Dose: 0, 2% in drinking water (3000 mg/kg/day), 0.003% UDMH (40 ppm impurity) for 2 yr, Tumor Site: Type of Lesion: Lung: adenomas and adenocarcinomas Vascular tumor: hemangioma and hemangiosarcoma predominantly in liver) “equivocal, incidence of lung tumors may be from udmh”; (Species: RAT, Strain/Sex: F344/FEMALE, Route: ORAL, Dose: 0, 5000, 10000 PPM IN DIET FOR 104 WK (STUDY DURATION: 105 WK), Dose: 0, 5000, 10000 PPM IN DIET FOR 104 WK (STUDY DURATION: 105 WK), Tumor Site: Type of Lesion: ENDOMETRIUM: ADENOCARCINOMA, UTERUS: LEIOMYOSARCOMA) “active; positive”. For the same compound, the carcinogen call by setting is: (Species: RAT, Strain/Sex: F344/MALE, Route: ORAL, Dose: 0, 5000, 10000 PPM IN DIET FOR 104 WK (STUDY DURATION: 105 WK), Dose: 0, 5000, 10000 PPM IN DIET FOR 104 WK (STUDY DURATION: 105 WK)) “inactive; negative”; (Species: Rat, Strain/Sex: Fischer 344/Female (50/group), Route: Oral, Dose: 0, 1, 50, 100 ppm in diet for 2 yr, Dose: 0, 1, 50, 100 ppm in diet for 2 yr, Tumor Site: Type of Lesion: Liver: increase at 50 and 100 ppm (incidence not reported by CADPR) Uterus: Adenocarcinoma (0, 0, 0, 2)) “equivocal, ca dpr described results as providing marginal evidence of treatment”; (Species: Rat, Strain/Sex: Fischer 344/Female (50/group), Route: Oral, Dose: 0, 100, 500, 5,000, 10,000 ppm in diet for 2 yr, Dose: 0, 100, 500, 5,000, 10,000 ppm in diet for 2 yr, Tumor Site: Type of Lesion: Uterus: Adenocarcinoma (0, 1, 2, 1, 1), Leiomyocarcinoma (0, 0, 0, 2, 1)) “equivocal, ca dpr noted rarity of the tumors but that mtd not achieved”; (Species: Rat, Strain/Sex: Fischer 344/Male (50/group), Route: Oral, Dose: 0, 100, 500, 5,000, 10,000 ppm in diet for 2 yr, Dose: 0, 100, 500, 5,000, 10,000 ppm in diet for 2 yr) “inactive; negative”.
Turning to `[O]=[Mo](=[O])=[O]`, the carcinogen call was “active; positive” (Species: MOUSE, Strain/Sex: B6C3F1/FEMALE, Route: INHALATION, Dose: 0, 10, 30, 100 MG/M3 6 HR/D 5 D/WK FOR 105 WK (STUDY DURATION: 105 WK), Dose: 0, 10, 30, 100 MG/M3 6 HR/D 5 D/WK FOR 105 WK (STUDY DURATION: 105 WK), Tumor Site: Type of Lesion: LUNG: ALVEOLAR/BRONCHIOLAR ADENOMA, ALVEOLAR/BRONCHIOLAR ADENOMA OR CARCINOMA); “active; positive” (Species: MOUSE, Strain/Sex: B6C3F1/MALE, Route: INHALATION, Dose: 0, 10, 30, 100 MG/M3 6 HR/D 5 D/WK FOR 105 WK (STUDY DURATION: 105 WK), Dose: 0, 10, 30, 100 MG/M3 6 HR/D 5 D/WK FOR 105 WK (STUDY DURATION: 105 WK), Tumor Site: Type of Lesion: LUNG: ALVEOLAR/BRONCHIOLAR CARCINOMA); “inactive; negative” (Species: RAT, Strain/Sex: F344/FEMALE, Route: INHALATION, Dose: 0, 10, 30, 100 MG/M3 6 HR/D 5 D/WK FOR 106 WK (STUDY DURATION: 106 WK), Dose: 0, 10, 30, 100 MG/M3 6 HR/D 5 D/WK FOR 106 WK (STUDY DURATION: 106 WK)); “equivocal” (Species: RAT, Strain/Sex: F344/MALE, Route: INHALATION, Dose: 0, 10, 30, 100 MG/M3 6 HR/D 5 D/WK FOR 106 WK (STUDY DURATION: 106 WK), Dose: 0, 10, 30, 100 MG/M3 6 HR/D 5 D/WK FOR 106 WK (STUDY DURATION: 106 WK), Tumor Site: Type of Lesion: LUNG: ALVEOLAR/BRONCHIOLAR ADENOMA, ALVEOLAR/BRONCHIOLAR CARCINOMA, ALVEOLAR/BRONCHIOLAR ADENOMA OR CARCINOMA).
